Laboratory results as given in patent US8741906B2 (priority 2011, dated 2014).
Read-outs that look alike come from different tables or passages of the source.

Tests used:
[1] = biological target: T1, human CB2 receptors (Homo sapiens, UniProt P34972); assay: functional cAMP assay, human CB2; type: cell-based
T1 construct: expressed in transfected cells; host or cells: CHO cells
Method: (§1) CHO cells expressing human CB1 or CB2 receptors are seeded 17-24 hours prior to the experiment 50.000 cells per well in a black 96 well plate with flat clear bottom (Corning Costar #3904) in DMEM (Invitrogen No. 31331), 1×HT supplement, with 10% fetal calf serum and incubated at 5% CO2 and 37° C. in a humidified incubator. The growth medium was exchanged with Krebs Ringer Bicarbonate buffer with 1 mM IBMX and incubated at 30° C. for 30 min. Compounds were added to a final assay volume of 100 μl and incubated for 30 min at 30° C. Using the cAMP-Nano-TRF detection kit the assay (Roche Diagnostics) was stopped by the addition of 50 μl lysis reagent (Tris, NaCl, 1.5% Triton X100, 2.5% NP40, 10% NaN3) and 50 μl detection solutions (20 μM mAb Alexa700-cAMP 1:1, and 48 μM Ruthenium-2-AHA-cAMP) and shaken for 2 h at room temperature. The time-resolved energy transfer is measured by a TRF reader (Evotec Technologies GmbH), equipped with a ND:YAG laser as excitation source. The plate is measured twice with the excitation at 355 nm and at the emission with a delay of 100 ns and a gate of 100 ns, total exposure time 10 s at 730 (bandwidth 30 nm) or 645 nm (bandwidth 75 nm), respectively. The FRET signal is calculated as follows: FRET=T730-Alexa730-P(T645-B645) with P=Ru730-B730/Ru645-B645, where T730 is the test well measured at 730 nM, T645 is the test well measured at 645 nm, B730 and B645 are the buffer controls at 730 nm and 645 nm, respectively. cAMP content is determined from the function of a standard curve spanning from 10 μM to 0.13 nM cAMP.
(§2) EC50 values were determined using Activity Base analysis (ID Business Solution, Limited). The EC50 values for a wide range of cannabinoid agonists generated from this assay were in agreement with the values published in the scientific literature.

[2] = biological target: T2, human CB1 receptors (Homo sapiens, UniProt P21554); assay: functional cAMP assay, human CB1; type: cell-based
T2 construct: expressed in transfected cells; host or cells: CHO cells
T2 sequence (P21554 whole entry): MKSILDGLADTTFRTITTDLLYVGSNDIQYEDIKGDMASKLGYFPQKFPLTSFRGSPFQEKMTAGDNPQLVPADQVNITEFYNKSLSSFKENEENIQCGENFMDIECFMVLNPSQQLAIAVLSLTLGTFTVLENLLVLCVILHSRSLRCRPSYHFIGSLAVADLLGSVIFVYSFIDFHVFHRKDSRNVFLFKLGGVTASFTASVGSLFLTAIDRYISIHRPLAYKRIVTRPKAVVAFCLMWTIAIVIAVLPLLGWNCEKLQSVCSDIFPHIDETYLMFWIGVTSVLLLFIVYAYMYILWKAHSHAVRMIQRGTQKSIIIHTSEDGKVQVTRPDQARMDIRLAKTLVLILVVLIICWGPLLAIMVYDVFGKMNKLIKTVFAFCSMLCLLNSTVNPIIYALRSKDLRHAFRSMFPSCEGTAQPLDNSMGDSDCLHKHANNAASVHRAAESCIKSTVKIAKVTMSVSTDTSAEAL
Method: as §1, §2

[3] = CHO cells expressing human CB2, cAMP, read-out: human CB2 EC50
[4] = CHO cells expressing human CB1, cAMP, read-out: human CB1 EC50

T1 sequence (P34972 whole entry): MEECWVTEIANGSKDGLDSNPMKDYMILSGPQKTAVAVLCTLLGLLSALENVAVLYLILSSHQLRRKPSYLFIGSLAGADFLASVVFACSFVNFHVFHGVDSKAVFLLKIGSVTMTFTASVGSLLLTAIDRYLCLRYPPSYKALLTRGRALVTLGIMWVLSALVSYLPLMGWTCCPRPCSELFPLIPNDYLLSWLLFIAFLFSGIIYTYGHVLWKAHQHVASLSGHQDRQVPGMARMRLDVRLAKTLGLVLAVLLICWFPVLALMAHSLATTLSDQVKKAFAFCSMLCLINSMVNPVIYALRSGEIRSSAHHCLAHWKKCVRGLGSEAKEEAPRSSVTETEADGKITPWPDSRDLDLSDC

Row | SMILES | EC50 [1, 3] [nM] | EC50 [2, 4] [nM] | EC50 [1] [nM] | EC50 [2] [nM]
1 | CC(C)(C)c1nc(N2CC[C@H](O)C2)c2nnn(Cc3ccccc3Cl)c2n1 [Example 26, (S)-1-[5-tert-Butyl-3-(2-chloro-benzyl)-3H-[1,2,3]triazolo[4,5-d]pyrimidin-7-yl]-pyrrolidin-3-ol] | 1.1 | 866 | – | –
2 | CC(C)(C)c1nc(N2CC[C@@H](O)C2)c2nnn(Cc3ccccc3Cl)c2n1 [Example 27, (R)-1-[5-tert-Butyl-3-(2-chloro-benzyl)-3H-[1,2,3]triazolo[4,5-d]pyrimidin-7-yl]-pyrrolidin-3-ol] | 5.1 | > 10000 | – | –
3 | COC1CCN(c2nc(C(C)(C)C)nc3c2nnn3Cc2ccccc2Cl)C1 (stereo not shown) [Example 28, 5-tert-Butyl-3-(2-chloro-benzyl)-7-(3-methoxy-pyrrolidin-1-yl)-3H-[1,2,3]triazolo[4,5-d]pyrimidine] | 11.2 | > 10000 | – | –
4 | CC(C)(C)c1nc(N2CCCC2(C)C)c2nnn(Cc3ccccc3Cl)c2n1 [Example 29, 5-tert-Butyl-3-(2-chloro-benzyl)-7-(2,2-dimethyl-pyrrolidin-1-yl)-3H-[1,2,3]triazolo[4,5-d]pyrimidine] | 12.5 | 1630 | – | –
5 | CC1CCCN1c1nc(C(C)(C)C)nc2c1nnn2Cc1ccccc1Cl (stereo not shown) [Example 30, 5-tert-Butyl-3-(2-chloro-benzyl)-7-(2-methyl-pyrrolidin-1-yl)-3H-[1,2,3]triazolo[4,5-d]pyrimidine] | 26.9 | > 10000 | – | –
6 | CC(C)(C)c1nc(N2CCC3(COC3)C2)c2nnn(Cc3ccccc3Cl)c2n1 [Example 31, 5-tert-Butyl-3-(2-chloro-benzyl)-7-(2-oxa-6-aza-spiro[3.4]oct-6-yl)-3H-[1,2,3]triazolo[4,5-d]pyrimidine] | 9.8 | 1260 | – | –
7 | CC(C)(C)c1nc(N2CCC(O)CC2)c2nnn(Cc3ccccc3Cl)c2n1 [Example 32, 1-[5-tert-Butyl-3-(2-chloro-benzyl)-3H-[1,2,3]triazolo[4,5-d]pyrimidin-7-yl]-piperidin-4-ol] | 20.7 | > 10000 | – | –
8 | CC(C)(C)c1nc(N2CCC[C@H](O)C2)c2nnn(Cc3ccccc3Cl)c2n1 [Example 33, (S)-1-[5-tert-Butyl-3-(2-chloro-benzyl)-3H-[1,2,3]triazolo[4,5-d]pyrimidin-7-yl]-piperidin-3-ol] | 2.5 | 764 | – | –
9 | CC(C)(C)c1nc(N2CCC[C@@H](O)C2)c2nnn(Cc3ccccc3Cl)c2n1 [Example 34, (R)-1-[5-tert-Butyl-3-(2-chloro-benzyl)-3H-[1,2,3]triazolo[4,5-d]pyrimidin-7-yl]-piperidin-3-ol] | 27.5 | 2270 | – | –
10 | CC(C)(C)c1nc(N2CCC23COC3)c2nnn(Cc3ccccc3Cl)c2n1 [Example 35, 5-tert-Butyl-3-(2-chloro-benzyl)-7-(6-oxa-1-aza-spiro[3.3]hept-1-yl)-3H-[1,2,3]triazolo[4,5-d]pyrimidine] | 3.6 | > 10000 | – | –
11 | CC(C)(C)c1nc(N2CC[C@H](F)C2)c2nnn(Cc3ccccc3Cl)c2n1 [Example 36, 5-tert-Butyl-3-(2-chloro-benzyl)-7-((S)-3-fluoro-pyrrolidin-1-yl)-3H-[1,2,3]triazolo[4,5-d]pyrimidine] | 0.6 | 432 | – | –
12 | CC(C)(C)c1nc(N2CCC[C@@H]2CO)c2nnn(Cc3ccccc3Cl)c2n1 [Example 37, {(R)-1-[5-tert-Butyl-3-(2-chloro-benzyl)-3H-[1,2,3]triazolo[4,5-d]pyrimidin-7-yl]-pyrrolidin-2-yl}-methanol] | 0.3 | 492 | – | –
13 | CC(C)(C)c1nc(N2CCC[C@H]2CO)c2nnn(Cc3ccccc3Cl)c2n1 [Example 38, {(S)-1-[5-tert-Butyl-3-(2-chloro-benzyl)-3H-[1,2,3]triazolo[4,5-d]pyrimidin-7-yl]-pyrrolidin-2-yl}-methanol] | 18.2 | 361 | – | –
14 | CC(C)(C)c1nc(N2CCCCO2)c2nnn(Cc3ccccc3Cl)c2n1 [Example 39, 5-tert-Butyl-3-(2-chloro-benzyl)-7-[1,2]oxazinan-2-yl-3H-[1,2,3]triazolo[4,5-d]pyrimidine] | 7.9 | 1330 | – | –
15 | CC(C)(C)c1nc(N2CCCO2)c2nnn(Cc3ccccc3Cl)c2n1 [Example 40, 5-tert-Butyl-3-(2-chloro-benzyl)-7-isoxazolidin-2-yl-3H-[1,2,3]triazolo[4,5-d]pyrimidine] | 11.6 | > 10000 | – | –
16 | CC(C)(C)c1nc(N2CC2)c2nnn(Cc3ccccc3Cl)c2n1 [Example 41, 7-Aziridin-1-yl-5-tert-butyl-3-(2-chloro-benzyl)-3H-[1,2,3]triazolo[4,5-d]pyrimidine] | – | – | 36.5 | 1220
17 | CC(C)(C)c1nc(N2CC[C@@H](F)C2)c2nnn(Cc3ccccc3Cl)c2n1 [Example 42, 5-tert-Butyl-3-(2-chloro-benzyl)-7-((R)-3-fluoro-pyrrolidin-1-yl)-3H-[1,2,3]triazolo[4,5-d]pyrimidine] | 0.3 | 991 | – | –
18 | CC(C)(C)c1nc(N2CC(F)(F)C(F)(F)C2)c2nnn(Cc3ccccc3Cl)c2n1 [Example 43, 5-tert-Butyl-3-(2-chloro-benzyl)-7-(3,3,4,4-tetrafluoro-pyrrolidin-1-yl)-3H-[1,2,3]triazolo[4,5-d]pyrimidine] | 1.2 | 626 | – | –
19 | COC[C@H]1CCCN1c1nc(C(C)(C)C)nc2c1nnn2Cc1ccccc1Cl [Example 44, 5-tert-Butyl-3-(2-chloro-benzyl)-7-((R)-2-methoxymethyl-pyrrolidin-1-yl)-3H-[1,2,3]triazolo[4,5-d]pyrimidine] | 1 | > 10000 | – | –
20 | COC[C@@H]1CCCN1c1nc(C(C)(C)C)nc2c1nnn2Cc1ccccc1Cl [Example 45, 5-tert-Butyl-3-(2-chloro-benzyl)-7-((S)-2-methoxymethyl-pyrrolidin-1-yl)-3H-[1,2,3]triazolo[4,5-d]pyrimidine] | 52.2 | > 10000 | – | –
21 | CC(C)(C)c1nc(N2C[C@@H](F)C[C@H]2C#N)c2nnn(Cc3ccccc3Cl)c2n1 [Example 46, (2S,4S)-1-[5-tert-Butyl-3-(2-chloro-benzyl)-3H-[1,2,3]triazolo[4,5-d]pyrimidin-7-yl]-4-fluoro-pyrrolidine-2-carbonitrile] | 4.4 | 2310 | – | –
22 | CC(C)(C)c1nc(N2CCCS2(=O)=O)c2nnn(Cc3ccccc3Cl)c2n1 [Example 47, 5-tert-Butyl-3-(2-chloro-benzyl)-7-(1,1-dioxo-1λ6-isothiazolidin-2-yl)-3H-[1,2,3]triazolo[4,5-d]pyrimidine] | 20.2 | > 10000 | – | –
23 | CC(C)(C)c1nc(N2CCOCC2CO)c2nnn(Cc3ccccc3Cl)c2n1 (stereo not shown) [Example 48, {4-[5-tert-Butyl-3-(2-chloro-benzyl)-3H-[1,2,3]triazolo[4,5-d]pyrimidin-7-yl]-morpholin-3-yl}-methanol] | 8.3 | > 10000 | – | –
24 | CC(C)(C)c1nc(N2CCC[C@@H]2C#N)c2nnn(Cc3ccccc3Cl)c2n1 [Example 49, (R)-1-[5-tert-Butyl-3-(2-chloro-benzyl)-3H-[1,2,3]triazolo[4,5-d]pyrimidin-7-yl]-pyrrolidine-2-carbonitrile] | 1.1 | 155 | – | –
25 | CC(C)(C)c1nc(N2CCC[C@H]2C#N)c2nnn(Cc3ccccc3Cl)c2n1 [Example 50, (S)-1-[5-tert-Butyl-3-(2-chloro-benzyl)-3H-[1,2,3]triazolo[4,5-d]pyrimidin-7-yl]-pyrrolidine-2-carbonitrile] | 1 | 139 | – | –
26 | CC(C)(C)c1nc(N2CC[C@H](O)[C@@H]2CO)c2nnn(Cc3ccccc3Cl)c2n1 [Example 51, (2S,3S)-1-[5-tert-Butyl-3-(2-chloro-benzyl)-3H-[1,2,3]triazolo[4,5-d]pyrimidin-7-yl]-2-hydroxymethyl-pyrrolidin-3-ol] | 2.4 | > 10000 | – | –
27 | CC(C)(C)c1nc(N2CC[C@@H](O)[C@@H]2CO)c2nnn(Cc3ccccc3Cl)c2n1 [Example 52, (2S,3R)-1-[5-tert-Butyl-3-(2-chloro-benzyl)-3H-[1,2,3]triazolo[4,5-d]pyrimidin-7-yl]-2-hydroxymethyl-pyrrolidin-3-ol] | 20.8 | > 10000 | – | –
28 | CC(C)(C)c1nc(N2CCCC23COC3)c2nnn(Cc3ccccc3Cl)c2n1 [Example 53, 5-tert-Butyl-3-(2-chloro-benzyl)-7-(2-oxa-5-aza-spiro[3.4]oct-5-yl)-3H-[1,2,3]triazolo[4,5-d]pyrimidine] | 15 | > 10000 | – | –
29 | CC1(O)CCN(c2nc(C(C)(C)C)nc3c2nnn3Cc2ccccc2Cl)C1 (stereo not shown) [Example 54, 1-[5-tert-Butyl-3-(2-chloro-benzyl)-3H-[1,2,3]triazolo[4,5-d]pyrimidin-7-yl]-3-methyl-pyrrolidin-3-ol] | 2.8 | > 10000 | – | –
